Assay results published in ChEMBL document CHEMBL3991601, “The target landscape of clinical kinase drugs” (Science, 2017).
Active and inactive are the calls of the source.

Assays:
[1] = target: Serine/threonine-protein kinase PLK1 (Homo sapiens, UniProt P53350)
[2] = target: T1, Tyrosine-protein kinase Mer (Homo sapiens, UniProt Q12866)
T1 sequence (Q12866 whole entry): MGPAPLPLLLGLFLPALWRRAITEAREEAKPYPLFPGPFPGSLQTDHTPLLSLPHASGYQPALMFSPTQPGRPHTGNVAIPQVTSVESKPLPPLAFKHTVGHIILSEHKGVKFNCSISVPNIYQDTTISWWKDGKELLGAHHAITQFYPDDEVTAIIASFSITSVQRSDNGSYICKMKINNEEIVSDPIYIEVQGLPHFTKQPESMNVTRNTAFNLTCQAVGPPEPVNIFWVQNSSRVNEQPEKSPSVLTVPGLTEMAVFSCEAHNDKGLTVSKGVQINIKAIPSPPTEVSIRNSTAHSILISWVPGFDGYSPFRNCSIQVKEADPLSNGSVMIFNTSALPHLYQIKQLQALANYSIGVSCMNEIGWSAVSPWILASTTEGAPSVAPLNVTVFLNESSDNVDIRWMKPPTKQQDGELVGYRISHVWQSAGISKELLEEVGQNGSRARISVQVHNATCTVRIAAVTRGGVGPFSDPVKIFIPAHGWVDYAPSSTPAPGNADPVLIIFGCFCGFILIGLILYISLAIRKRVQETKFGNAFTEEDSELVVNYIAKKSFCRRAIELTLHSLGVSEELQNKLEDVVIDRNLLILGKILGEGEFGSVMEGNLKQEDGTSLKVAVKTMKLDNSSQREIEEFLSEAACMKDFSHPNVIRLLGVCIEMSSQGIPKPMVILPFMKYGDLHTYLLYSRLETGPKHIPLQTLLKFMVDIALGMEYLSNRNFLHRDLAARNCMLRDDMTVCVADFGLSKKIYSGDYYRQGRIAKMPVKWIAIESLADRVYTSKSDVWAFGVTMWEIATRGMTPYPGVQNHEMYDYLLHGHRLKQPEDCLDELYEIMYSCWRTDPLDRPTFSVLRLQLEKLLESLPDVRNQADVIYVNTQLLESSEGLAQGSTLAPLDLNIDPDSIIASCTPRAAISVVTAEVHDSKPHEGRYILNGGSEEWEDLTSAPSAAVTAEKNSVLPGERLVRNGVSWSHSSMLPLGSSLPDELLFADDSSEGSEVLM

[3] = target: Serine/threonine-protein kinase 38-like (Homo sapiens, UniProt Q9Y2H1)
[4] = target: Cyclin-dependent kinase 18 (Homo sapiens, UniProt Q07002)
Misshapen-like kinase 1 = Misshapen-like kinase 1 (Homo sapiens, UniProt Q8N4C8)
[5] = target: Dual specificity tyrosine-phosphorylation-regulated kinase 1B (Homo sapiens, UniProt Q9Y463)
[6] = target: Cyclin-dependent kinase 10 (Homo sapiens, UniProt Q15131)
[7] = target: Tyrosine-protein kinase Fgr (Homo sapiens, UniProt P09769)
[8] = target: Ras-related C3 botulinum toxin substrate 1 (Homo sapiens, UniProt P63000)
[9] = target: T2, General transcription and DNA repair factor IIH helicase subunit XPD (Homo sapiens, UniProt P18074)
T2 sequence (P18074 whole entry): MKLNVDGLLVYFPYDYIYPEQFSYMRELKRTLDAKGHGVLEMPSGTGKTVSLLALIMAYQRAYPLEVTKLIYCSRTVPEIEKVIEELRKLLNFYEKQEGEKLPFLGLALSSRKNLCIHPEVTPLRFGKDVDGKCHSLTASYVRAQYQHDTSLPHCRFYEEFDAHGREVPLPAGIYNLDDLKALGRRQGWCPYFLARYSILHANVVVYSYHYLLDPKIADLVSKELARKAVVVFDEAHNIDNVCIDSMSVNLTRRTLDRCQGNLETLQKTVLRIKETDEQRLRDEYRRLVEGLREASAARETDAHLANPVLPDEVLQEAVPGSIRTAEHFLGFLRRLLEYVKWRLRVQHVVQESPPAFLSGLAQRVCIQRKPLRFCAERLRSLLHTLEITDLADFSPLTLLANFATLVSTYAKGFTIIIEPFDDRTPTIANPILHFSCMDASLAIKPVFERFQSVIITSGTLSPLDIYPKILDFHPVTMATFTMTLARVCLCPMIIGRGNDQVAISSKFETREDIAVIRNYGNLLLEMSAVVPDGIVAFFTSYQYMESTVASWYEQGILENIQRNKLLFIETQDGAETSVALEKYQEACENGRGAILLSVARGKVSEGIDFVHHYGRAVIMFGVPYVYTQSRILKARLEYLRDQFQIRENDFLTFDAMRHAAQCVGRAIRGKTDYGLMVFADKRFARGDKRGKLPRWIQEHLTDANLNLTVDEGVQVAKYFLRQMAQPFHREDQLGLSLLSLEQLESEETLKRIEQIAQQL

[10] = target: T3, Dual specificity mitogen-activated protein kinase kinase 4 (Homo sapiens, UniProt P45985)
T3 sequence (P45985 whole entry): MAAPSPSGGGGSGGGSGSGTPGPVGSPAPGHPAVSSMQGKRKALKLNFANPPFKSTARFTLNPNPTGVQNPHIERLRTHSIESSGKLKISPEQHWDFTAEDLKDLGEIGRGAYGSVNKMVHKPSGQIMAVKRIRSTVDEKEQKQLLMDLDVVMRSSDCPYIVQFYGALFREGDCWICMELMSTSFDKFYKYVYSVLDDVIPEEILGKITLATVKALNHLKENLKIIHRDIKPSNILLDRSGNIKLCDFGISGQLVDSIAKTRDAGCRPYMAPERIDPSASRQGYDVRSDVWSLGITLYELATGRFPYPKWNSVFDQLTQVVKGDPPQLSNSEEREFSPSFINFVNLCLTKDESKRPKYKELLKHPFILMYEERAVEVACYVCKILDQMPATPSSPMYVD

[11] = target: ALK tyrosine kinase receptor (Homo sapiens, UniProt Q9UM73); type: subcellular, K-562, COLO 205, SK-N-BE(2) and MV-4-11, Cell lysate; settings: read-out: Kd apparent
Further: in the data inactive means no Kd found up to 30 µM.

Chain of Serine/threonine-protein kinase 38-like (Q9Y2H1 whole entry): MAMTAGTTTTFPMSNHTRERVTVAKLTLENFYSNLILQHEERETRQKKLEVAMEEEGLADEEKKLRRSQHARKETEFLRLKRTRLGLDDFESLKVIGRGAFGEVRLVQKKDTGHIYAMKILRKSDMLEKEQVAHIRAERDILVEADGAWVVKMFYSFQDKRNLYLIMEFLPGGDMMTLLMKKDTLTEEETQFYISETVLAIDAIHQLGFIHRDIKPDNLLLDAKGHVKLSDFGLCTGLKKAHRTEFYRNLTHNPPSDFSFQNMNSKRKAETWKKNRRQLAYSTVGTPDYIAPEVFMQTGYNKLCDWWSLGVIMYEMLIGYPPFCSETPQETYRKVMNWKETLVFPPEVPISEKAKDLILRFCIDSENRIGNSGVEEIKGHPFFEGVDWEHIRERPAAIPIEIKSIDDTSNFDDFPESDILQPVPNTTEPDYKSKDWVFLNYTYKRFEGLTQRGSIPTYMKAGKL
Chain of Misshapen-like kinase 1 (Q8N4C8 whole entry): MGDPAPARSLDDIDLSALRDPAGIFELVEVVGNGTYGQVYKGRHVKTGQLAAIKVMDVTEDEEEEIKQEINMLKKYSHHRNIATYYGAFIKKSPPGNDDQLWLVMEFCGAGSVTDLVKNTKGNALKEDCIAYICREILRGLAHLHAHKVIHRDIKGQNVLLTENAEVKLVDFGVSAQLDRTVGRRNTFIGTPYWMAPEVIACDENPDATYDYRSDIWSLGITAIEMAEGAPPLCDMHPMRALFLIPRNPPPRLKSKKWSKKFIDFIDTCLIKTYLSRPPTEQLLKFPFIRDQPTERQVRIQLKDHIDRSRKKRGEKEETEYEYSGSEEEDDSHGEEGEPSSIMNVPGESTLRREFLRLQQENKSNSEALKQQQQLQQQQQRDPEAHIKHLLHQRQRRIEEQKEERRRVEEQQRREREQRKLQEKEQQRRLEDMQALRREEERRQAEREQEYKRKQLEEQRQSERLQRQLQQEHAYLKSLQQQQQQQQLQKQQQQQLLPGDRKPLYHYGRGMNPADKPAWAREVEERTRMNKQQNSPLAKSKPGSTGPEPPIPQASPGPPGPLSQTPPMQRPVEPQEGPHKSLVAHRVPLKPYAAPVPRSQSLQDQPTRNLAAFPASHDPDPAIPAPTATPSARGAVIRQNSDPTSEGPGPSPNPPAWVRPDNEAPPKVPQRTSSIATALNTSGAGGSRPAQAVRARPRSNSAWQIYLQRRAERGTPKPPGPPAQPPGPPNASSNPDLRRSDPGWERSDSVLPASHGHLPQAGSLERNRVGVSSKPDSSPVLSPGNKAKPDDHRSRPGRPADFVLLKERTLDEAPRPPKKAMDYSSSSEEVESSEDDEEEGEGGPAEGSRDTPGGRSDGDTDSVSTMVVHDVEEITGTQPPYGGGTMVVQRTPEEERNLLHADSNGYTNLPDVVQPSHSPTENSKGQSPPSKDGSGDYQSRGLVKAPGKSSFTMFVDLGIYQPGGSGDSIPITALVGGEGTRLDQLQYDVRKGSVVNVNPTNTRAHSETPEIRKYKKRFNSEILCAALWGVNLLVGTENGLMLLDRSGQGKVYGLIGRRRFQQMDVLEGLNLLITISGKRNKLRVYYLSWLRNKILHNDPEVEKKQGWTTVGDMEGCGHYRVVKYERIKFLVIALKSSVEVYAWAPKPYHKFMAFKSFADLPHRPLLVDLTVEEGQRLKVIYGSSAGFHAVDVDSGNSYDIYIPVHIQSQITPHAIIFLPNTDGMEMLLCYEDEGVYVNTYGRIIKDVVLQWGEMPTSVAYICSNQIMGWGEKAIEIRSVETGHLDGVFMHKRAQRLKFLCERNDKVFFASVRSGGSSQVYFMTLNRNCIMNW
Chain of Tyrosine-protein kinase Fgr (P09769 whole entry): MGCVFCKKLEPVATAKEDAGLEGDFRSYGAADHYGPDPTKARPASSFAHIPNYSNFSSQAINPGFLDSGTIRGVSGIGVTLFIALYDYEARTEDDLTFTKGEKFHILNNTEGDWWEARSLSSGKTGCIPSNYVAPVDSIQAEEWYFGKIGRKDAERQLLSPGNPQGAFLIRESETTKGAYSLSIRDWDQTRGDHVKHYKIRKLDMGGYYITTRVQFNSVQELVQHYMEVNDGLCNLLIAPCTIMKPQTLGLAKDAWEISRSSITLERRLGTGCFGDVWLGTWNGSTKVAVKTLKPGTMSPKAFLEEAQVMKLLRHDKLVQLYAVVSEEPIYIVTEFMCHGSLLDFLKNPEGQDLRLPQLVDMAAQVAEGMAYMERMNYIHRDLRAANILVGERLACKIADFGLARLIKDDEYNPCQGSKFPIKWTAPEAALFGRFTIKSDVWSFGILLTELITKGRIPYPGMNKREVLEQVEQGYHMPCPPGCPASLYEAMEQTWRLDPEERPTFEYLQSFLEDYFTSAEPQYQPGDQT
Chain of Serine/threonine-protein kinase PLK1 (P53350 whole entry): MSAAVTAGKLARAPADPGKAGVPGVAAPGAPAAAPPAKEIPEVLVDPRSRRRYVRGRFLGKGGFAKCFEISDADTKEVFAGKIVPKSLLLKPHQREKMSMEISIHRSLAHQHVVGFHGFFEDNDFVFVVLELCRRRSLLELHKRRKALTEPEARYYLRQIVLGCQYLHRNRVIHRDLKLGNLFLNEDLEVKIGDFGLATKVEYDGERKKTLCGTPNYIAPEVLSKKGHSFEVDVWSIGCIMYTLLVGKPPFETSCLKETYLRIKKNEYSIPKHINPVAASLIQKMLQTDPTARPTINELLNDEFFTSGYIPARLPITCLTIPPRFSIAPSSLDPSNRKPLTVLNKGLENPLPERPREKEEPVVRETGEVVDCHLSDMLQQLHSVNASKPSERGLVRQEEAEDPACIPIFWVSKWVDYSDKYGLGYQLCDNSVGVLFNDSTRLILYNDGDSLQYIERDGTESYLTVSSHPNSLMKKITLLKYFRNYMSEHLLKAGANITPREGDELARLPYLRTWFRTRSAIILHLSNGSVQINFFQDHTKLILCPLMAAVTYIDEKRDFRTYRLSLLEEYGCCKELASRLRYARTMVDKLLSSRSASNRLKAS
Chain of Cyclin-dependent kinase 10 (Q15131 whole entry): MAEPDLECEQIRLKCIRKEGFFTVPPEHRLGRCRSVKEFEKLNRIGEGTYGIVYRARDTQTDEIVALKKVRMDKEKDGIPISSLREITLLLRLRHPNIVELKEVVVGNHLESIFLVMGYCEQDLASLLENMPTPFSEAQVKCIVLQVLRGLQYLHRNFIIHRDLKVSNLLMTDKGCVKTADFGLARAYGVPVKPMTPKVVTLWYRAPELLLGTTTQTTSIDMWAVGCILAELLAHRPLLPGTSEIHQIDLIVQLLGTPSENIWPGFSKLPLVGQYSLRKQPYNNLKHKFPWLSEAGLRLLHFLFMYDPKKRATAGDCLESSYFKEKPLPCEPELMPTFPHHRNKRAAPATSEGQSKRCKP
Chain of Cyclin-dependent kinase 18 (Q07002 whole entry): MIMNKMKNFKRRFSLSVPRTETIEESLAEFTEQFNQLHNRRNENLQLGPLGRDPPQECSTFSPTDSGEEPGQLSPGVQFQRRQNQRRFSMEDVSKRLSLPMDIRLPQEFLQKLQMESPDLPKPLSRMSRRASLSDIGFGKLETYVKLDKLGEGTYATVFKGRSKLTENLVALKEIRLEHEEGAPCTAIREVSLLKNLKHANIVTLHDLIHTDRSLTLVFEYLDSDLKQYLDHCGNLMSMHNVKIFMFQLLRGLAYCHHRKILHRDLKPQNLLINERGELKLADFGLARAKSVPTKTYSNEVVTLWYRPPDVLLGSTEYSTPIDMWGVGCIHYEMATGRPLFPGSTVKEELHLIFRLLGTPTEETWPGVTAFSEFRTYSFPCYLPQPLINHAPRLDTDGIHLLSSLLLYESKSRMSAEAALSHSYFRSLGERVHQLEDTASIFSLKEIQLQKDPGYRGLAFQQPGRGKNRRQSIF
Chain of Dual specificity tyrosine-phosphorylation-regulated kinase 1B (Q9Y463 whole entry): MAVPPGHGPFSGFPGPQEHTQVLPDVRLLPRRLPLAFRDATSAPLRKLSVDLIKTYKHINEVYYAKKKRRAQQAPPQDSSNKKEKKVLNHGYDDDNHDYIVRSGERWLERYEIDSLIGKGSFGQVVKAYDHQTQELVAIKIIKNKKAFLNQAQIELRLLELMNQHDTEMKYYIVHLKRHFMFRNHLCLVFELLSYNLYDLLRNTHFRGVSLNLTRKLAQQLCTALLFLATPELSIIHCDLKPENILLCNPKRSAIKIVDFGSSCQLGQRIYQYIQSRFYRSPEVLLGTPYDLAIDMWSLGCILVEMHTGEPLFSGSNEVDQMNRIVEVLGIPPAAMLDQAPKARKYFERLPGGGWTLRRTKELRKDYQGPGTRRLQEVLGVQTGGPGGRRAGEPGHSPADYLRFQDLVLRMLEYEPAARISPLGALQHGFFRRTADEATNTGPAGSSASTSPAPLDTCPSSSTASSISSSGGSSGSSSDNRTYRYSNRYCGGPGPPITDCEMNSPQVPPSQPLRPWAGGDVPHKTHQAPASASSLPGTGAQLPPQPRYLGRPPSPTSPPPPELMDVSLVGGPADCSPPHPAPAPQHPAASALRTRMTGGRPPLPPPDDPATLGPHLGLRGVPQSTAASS

## C=CCn1c(=O)c2cnc(Nc3ccc(N4CCN(C)CC4)cc3)nc2n1-c1cccc(C(C)(C)O)n1 [ADAVOSERTIB]
[1]
  Kd: > 30 µM (inactive)
[2]
  Kd: > 30 µM (inactive)
[3]
  Kd: > 30 µM (inactive)
[4]
  Kd: > 30 µM (inactive)

## CCc1cc2c(cc1N1CCC(N3CCOCC3)CC1)C(C)(C)c1[nH]c3cc(C#N)ccc3c1C2=O [ALECTINIB]
[1]
  Kd: > 30 µM (inactive)
[2]
  Kd: > 30 µM (inactive)
Misshapen-like kinase 1
  Kd: > 30 µM (inactive)
[5]
  Kd: > 30 µM (inactive)
[6]
  Kd: > 30 µM (inactive)
[4]
  Kd: > 30 µM (inactive)
[7]
  Kd: > 30 µM (inactive)

## NC[C@@](O)(c1ccc(Cl)cc1)c1ccc(-c2cn[nH]c2)cc1 [AT-13148]
Misshapen-like kinase 1
  Kd: > 30 µM (inactive)
[8]
  Kd: > 30 µM (inactive)
[7]
  Kd: > 30 µM (inactive)

## CCOc1ccn(-c2ccc(F)cc2)c(=O)c1C(=O)Nc1ccc(Oc2ccnc(N)c2Cl)c(F)c1 [BMS-777607]
Misshapen-like kinase 1
  Kd: > 30 µM (inactive)
[3]
  Kd: > 30 µM (inactive)
[9]
  Kd: > 30 µM (inactive)

## COc1cc2c(Oc3ccc4[nH]c(C)cc4c3F)ncnc2cc1OCCCN1CCCC1 [CEDIRANIB]
[9]
  Kd: > 30 µM (inactive)

## CNC(=O)c1ccc(Nc2ncc(C(F)(F)F)c(NCc3nccnc3N(C)S(C)(=O)=O)n2)cc1 [DEFACTINIB]
[5]
  Kd: > 30 µM (inactive)
[4]
  Kd: > 30 µM (inactive)

## O=S(=O)(c1cccc2cnccc12)N1CCCNCC1 [FASUDIL]
[8]
  Kd: > 30 µM (inactive)
[7]
  Kd: > 30 µM (inactive)

## CCc1nc(C(N)=O)c(Nc2ccc(N3CCC(N4CCN(C)CC4)CC3)c(OC)c2)nc1NC1CCOCC1 [GILTERITINIB]
[8]
  Kd: > 30 µM (inactive)

## Cc1c(Cn2c(C)nc3c(C(=O)O)cc(N4CCOCC4)cc32)cccc1C(F)(F)F [GSK-2636771]
[6]
  Kd: > 30 µM (inactive)
[10]
  Kd: > 30 µM (inactive)
[4]
  Kd: > 30 µM (inactive)
[8]
  Kd: > 30 µM (inactive)

## C#Cc1cccc(Nc2ncnc3cc4c(cc23)OCCOCCOCCO4)c1 [ICOTINIB]
[1]
  Kd: > 30 µM (inactive)
[2]
  Kd: > 30 µM (inactive)
Misshapen-like kinase 1
  Kd: > 30 µM (inactive)
[5]
  Kd: > 30 µM (inactive)
[10]
  Kd: > 30 µM (inactive)
[4]
  Kd: > 30 µM (inactive)
[7]
  Kd: > 30 µM (inactive)

## O=C(Nc1ccc(OC(F)(F)F)cc1)c1sccc1NCc1ccnc2ccccc12 [OSI-930]
[1]
  Kd: > 30 µM (inactive)
[2]
  Kd: > 30 µM (inactive)
Misshapen-like kinase 1
  Kd: > 30 µM (inactive)
[6]
  Kd: > 30 µM (inactive)
[4]
  Kd: > 30 µM (inactive)
[7]
  Kd: > 30 µM (inactive)

## C=CC(=O)Nc1cc(Nc2nccc(-c3cn(C)c4ccccc34)n2)c(OC)cc1N(C)CCN(C)C [OSIMERTINIB]
Misshapen-like kinase 1
  Kd: > 30 µM (inactive)
[9]
  Kd: > 30 µM (inactive)

## FC(F)(F)c1ccc(CNc2ccc(Cc3c[nH]c4ncc(Cl)cc34)cn2)cn1 [PEXIDARTINIB]
[2]
  Kd: > 30 µM (inactive)
[11]
  Kd: > 30 µM (inactive)
[3]
  Kd: > 30 µM (inactive)
[9]
  Kd: > 30 µM (inactive)

## COc1cc(F)c(F)c(Nc2ccc(I)cc2F)c1NS(=O)(=O)C1(C[C@H](O)CO)CC1 [REFAMETINIB]
Misshapen-like kinase 1
  Kd: > 30 µM (inactive)
[3]
  Kd: > 30 µM (inactive)
[8]
  Kd: > 30 µM (inactive)

## CN1CCN(c2nc(C3=C(c4c[nH]c5ccccc45)C(=O)NC3=O)c3ccccc3n2)CC1 [SOTRASTAURIN]
[2]
  Kd: > 30 µM (inactive)
[11]
  Kd: > 30 µM (inactive)
Misshapen-like kinase 1
  Kd: 0.041 µM (active)
[6]
  Kd: > 30 µM (inactive)
[3]
  Kd: > 30 µM (inactive)
[8]
  Kd: > 30 µM (inactive)
